# In patent US11479561B2, “Tetrahydroisoquinoline derivatives” (Cytokinetics, Incorporated, priority 2016, dated 2022):
# Tests used:
# [1] = test system: ankle plantarflexor muscle; test: Rat isometric ankle plantarflexor muscle force; format: in vivo, Sprague Dawley rats; details: estimated, concentration at which muscle force is 50% of the pre-dose maximum tension, 30 Hz stimulation, continuous intravenous infusion over 60 min
# Description: Female Sprague Dawley rats were placed under a stable anesthesic plane with inhaled isoflurane (1-5%). One incision was made on the mid-thigh region of the right leg to expose the sciatic nerve. To prevent co-contraction of the ankle dorsiflexors, an additional incision was made lateral to the patella to isolate and sever the peroneal nerve. Rats were then placed on a temperature-maintained in situ muscle analysis rig (Aurora Scientific, Model 806C). The knee was immobilized in a clamp between two sharpened screws and the foot was taped to a footplate attached to a force transducer (Aurora Scientific, Ontario, Canada). Stainless steel needle electrodes (0.10 mm) were hooked around the exposed sciatic nerve. Isometric ankle plantarflexor muscle contractile force was assessed with the ankle joint at 90° flexion. A 30 Hz electrical stimulation (under supramaximal voltage conditions) was applied to the nerve and the resulting muscle force was recorded via a servomotor. A pre-dose 30 Hz force response was established as the baseline force. A pre-dose 150 Hz force response was established as the maximum isometric force. Compounds were formulated in 50% polyethylene glycol (PEG): 16% Cavitron: 10% dimethylacetamide (DMA) and administered by continuous intravenous infusion over a sixty minute period. The muscle force response to compound was measured every two minutes over the dosing period. Data was reported as an estimated EC50 value, which is the concentration at which muscle force is 50% of the pre-dose maximum tension.
# [2] = test system: rabbit skeletal myofibrils (approximately 90% fast fibers); test: Activation of fast skeletal myofibrils (PUMA coupled-enzyme ATPase assay); format: biochemical; details: concentration at which the compound increased the enzymatic activity by 40%; calcium level pCa25
# Protocol: Preparation of fast skeletal myofibrils: Rabbit skeletal myofibrils were prepared based upon the method of Herrmann et al. (Biochem. 32(28):7255-7263(1993). Myofibrils were prepared from rabbit psoas muscle purchased from Pel-Freez Biologicals (Arkansas) within 2 days of ordering, stored on ice. Minced muscle was homogenized in 10 volumes of ice-cold “standard” buffer (50 mM Tris, pH 7.4, 0.1 M KOAc, 5 mM KCl, 2 mM dithiothreitol (DTT), 0.2 mM phenylmethylsulfonyl fluoride (PMSF), 10 μM leupeptin, 5 μM pepstatin, and 0.5 mM sodium azide) containing 5 mM ethylenediaminetetraacetic acid (EDTA) and 0.5% Triton X-100 using an Omni-Macro homogenizer. Myofibrils were recovered by low speed centrifugation (3000 rpm for 10 minutes) and washed 2 times in the Triton X-100 containing buffer to ensure removal of cellular membrane. Following the Triton washes, myofibrils were washed 3 times in “standard” buffer containing 2 mM magnesium acetate. A final wash in assay buffer (12 mM piperazine-1,4-bis(2-ethanesulfonic acid) (PIPES), pH 6.8, 60 mM KCl, 1 mM DTT) was performed and brought to 10% sucrose for flash freezing in liquid nitrogen and storage at −80° C.
# Activation of Fast Skeletal Myofibrils: Fast fiber activators were identified by Measuring the enzymatic activity of muscle myofibril preparations using the proprietary PUMA (trademark) (see, e.g., U.S. Pat. Nos. 6,410,254, 6,743,599, 7,202,051, and 7,378,254) assay system. Myofibril preparations consisted of rabbit skeletal muscle (approximately 90% fast fibers) that had been mechanically homogenized and washed with a detergent (Triton X-100) to remove cellular membranes. This preparation retained all of the sarcomeric components in a native conformation and the enzymatic activity was still regulated by calcium. Compounds were tested using a myofibril suspension and a level of calcium sufficient to increase enzymatic activity of the myofibrils to 25% of their maximal rate (termed pCa25). Enzymatic activity was tracked via a pyruvate kinase and lactate dehydrogenase-coupled enzyme system. This assay regenerates myosin-produced ADP into ATP by oxidizing NADH, producing an absorbance change at 340 nm. The buffering system was 12 mM PIPES, 2 mM MgCl2, 1 mM DTT at pH 6.8 (PM12 buffer).
# rat model of post-SCI = test: Basso, Beattie, and Bresnahan (BBB) score of post-spinal cord injury (SCI); format: in vivo, SD rats; details: post-SCI rats; day 6-7, 13-14, 20-21 after SCI; FIG. 8
# Protocol: Preparation of the rat model of post-SCI: The rat model was prepared based on the method of Scheff et. al. (J Neurotrauma. 2003 February; 20(2):179-93.) which uses Infinite Horizon impactor (IH-0400; Precision Systems and Instrumentation). Female SD rats (10 week old) were anesthetized with a mixture of 0.3 mg/kg medetomidine, 4 mg/kg midazoram, and 5 mg/kg butorphanol (s.c.). The dorsal region of the rats was incised and the thoracic spine from T8 to T12 was exposed. Subsequently, laminectomy was performed on T9 and T10. On the stage of IH-0400, the exposed spinal column of the rats was stabilized by clamping with two forceps attached to the joints of IH-0400. Each of the joint and the forceps was tightly locked. Injury of T9 and T10 was induced with a rod impact of 210 kdyn. After dorsal closure, the rats were housed one per cage under the postoperative care which includes the injections of 5 mL saline s.c. and 50 mg/kg Cefamezin s.c twice a day for a week after the SCI, and includes the manual expression of the bladder of the rats twice a day using Crede maneuver until the function of the bladder recovers. […] The effect of Example Compound 52 or vehicle was analyzed using unpaired t test (a probability value of less than 0.05 was considered as a significant difference). Data were expressed as the mean±SEM.
AC1.4 [2],Compound,"EC50 ([1]; Rattus norvegicus, iv, 1 h)",EC50 [1],BBB score (rat model of post-SCI)
0.565 µM,"CC1(CCO)C(=O)NC2(COC2)c2ccc(Cl)cc21 (stereo not drawn) [compound 35, 6-chloro-4-(2-hydroxyethyl)-4-methyl-2H-spiro[isoquinoline-1,3′-oxetan]-3(4H)-one]",,23 µM,
0.420 µM,CCC1(CC)C(=O)NC(C)(C)c2ncc(Cl)cc21 [compound 72],15.4 µM,,
0.326 µM,"CC1(C)C(=O)NC2(COC2)c2ccc(Cl)cc21 [compound 52, 6-chloro-4,4-dimethyl-2H-spiro[isoquinoline-1,3′-oxetan]-3(4H)-one]",25.6 µM,,increased BBB score
0.390 µM,CCC1(CC)C(=O)NC(C)(C)c2ccc(C#N)nc21 [compound 64],10 µM,,
0.141 µM,"CCC1(CC)C(=O)NC2(COC2)c2ccc(C#N)cc21 [compound 55, 4,4-diethyl-3-oxo-3,4-dihydro-2H-spiro[isoquinoline-1,3′-oxetane]-6-carbonitrile]",7.6 µM,,
<0.077 µM,CCC1(CC)C(=O)NC(C)(C)c2ccc(Br)cc21 [compound 49],8.2 µM,,
0.450 µM,CCC1(C)C(=O)NC(C)(C)c2ccc(C#N)nc21 (stereo not drawn) [compound 108],23 µM,,
1.247 µM,CCC1(CCO)C(=O)NC2(COC2)c2ccc(C(F)F)nc21 (stereo not drawn) [compound 103],23 µM,,
1.919 µM,CC1(C)NC(=O)C(C)(Cc2cc[nH]n2)c2nc(C#N)ccc21 (stereo not drawn) [compound 109],39.7 µM,,
5.017 µM,CCC1(CCO)C(=O)NC2(COC2)c2ccc(C(F)F)nc21 (stereo not drawn) [compound 104],,30 µM,
2.228 µM,CCC1(CCO)C(=O)NC2(COC2)c2ccc(C#N)nc21 (stereo not drawn) [compound 101],24 µM,,
2.067 µM,CC1(CCO)C(=O)NC2(COC2)c2ccc(C#N)cc21 (stereo not drawn) [compound 56],30 µM,,
0.976 µM,CCC1(CC)C(=O)NC(C)(C)c2ncc(C#N)cc21 [compound 57],28 µM,,
0.902 µM,CCC1(CC)C(=O)NC2(COC2)c2ncc(Cl)cc21 [compound 74],15.4 µM,,
1.571 µM,CC1(C)NC(=O)C(C)(C)c2cc(Cl)cnc21 [compound 73],50 µM,,

# The remaining lines, values behind:
Compound,AC1.4 [2],"EC50 ([1]; Rattus norvegicus, iv, 1 h)",EC50 [1],BBB score (rat model of post-SCI)
CC1(CCO)C(=O)NC2(COC2)c2ccc(OC(F)F)nc21 (stereo not drawn) [compound 19],,35 µM,,
CCC1(CC)C(=O)NC2(COC2)c2ncc(C#N)nc21 [compound 106],0.494 µM,15 µM,,
CCC1(CC)C(=O)NC2(COC2)c2ccc(C#N)nc21 [compound 16],,13 µM,,
CC1(C)C(=O)NC2(COC2)c2ccc(OC(F)F)nc21 [compound 18],,16 µM,,
CC1(C)C(=O)NC2(COC2)c2ccc(C#N)cc21 [compound 20],,30 µM,,
CCC1(CC)C(=O)NC2(COC2)c2cccnc21 [compound 12],,34 µM,,
CCC1(CC)C(=O)NC2(COC2)c2ccc(C(F)F)nc21 [compound 13],,19.5 µM,,
CCC1(CCO)C(=O)NC2(COC2)c2ccc(OC(F)F)nc21 (stereo not drawn) [compound 15],,16.4 µM,,
CC1(CC(F)F)C(=O)NC2(COC2)c2ccc(OC(F)F)nc21 (stereo not drawn) [compound 113],0.271 µM,8 µM,,
CCC1(CC)C(=O)NC2(COC2)c2ccc(OCC(F)(F)F)nc21 [compound 11],,17 µM,,
CC1(C)NC(=O)C(C)(C)c2cc(C#N)ccc21 [compound 61],0.537 µM,10.3 µM,,
